Target: Carbonic anhydrase 2 (Homo sapiens, UniProt P00918)
Assay: Inhibition of human carbonic anhydrase II (CAII)

NS(=O)(=O)c1cccc(N2C(=O)c3cccnc3C2=O)c1
Ki: 400 nM

Reference: BindingDB's records for doi:10.1016/s0960-894x(02)00954-x (A.P.S. University, 2003)
